# Assay results published in the supplement of paper PMC10307832.
# Assays:
# Test in all cases: relative viability (nuclei count vs DMSO), 5 days (fraction); higher = more cells survive
# NCI-H1563 = system: NCI-H1563
# Method in brief: (§1)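 Medians of duplicate plates are given as relative viability. That measure is the nuclei count in treated wells divided by the count in vehicle wells. Counts were taken on 4× images of lung cancer cell lines in 1536-well plates, 5 days after pin-tool dosing the day after seeding with one drug alone or a fixed anchor-drug dose plus five library-drug doses (not always all listed) in √10 steps.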
# PC-3 [JPC-3] = system: PC-3 [JPC-3]
# Method in brief: as §1
# EKVX = system: EKVX
# Method in brief: as §1
# NCI-H1975 = system: NCI-H1975
# Method in brief: as §1
# LCLC-97TM1 = system: LCLC-97TM1
# Method in brief: as §1
# NCI-H661 = system: NCI-H661
# Method in brief: as §1
# PC-14 = system: PC-14
# Method in brief: as §1
# RERF-LC-KJ = system: RERF-LC-KJ
# Method in brief: as §1
# NCI-H1355 = system: NCI-H1355
# Method in brief: as §1
# NCI-H2342 = system: NCI-H2342
# Method in brief: as §1
# NCI-H2228 = system: NCI-H2228
# Method in brief: as §1
# NCI-H1650 = system: NCI-H1650
# Method in brief: as §1
# H3255 = system: H3255
# Method in brief: as §1
# HCC-15 = system: HCC-15
# Method in brief: as §1
# LK-2 = system: LK-2
# Method in brief: as §1
# NCI-H322M = system: NCI-H322M
# Method in brief: as §1
# NCI-H520 = system: NCI-H520
# Method in brief: as §1
# NCI-H1755 = system: NCI-H1755
# Method in brief: as §1
# CAL-12T = system: CAL-12T
# Method in brief: as §1
# HCC-827 = system: HCC-827
# Method in brief: as §1
# NCI-H2405 = system: NCI-H2405
# Method in brief: as §1
# NCI-H1734 = system: NCI-H1734
# Method in brief: as §1
smiles,measurement,setting,value
O=c1cc(-c2cccc3c2Sc2ccccc2S3)oc(N2CCOCC2)c1 + COc1cccc2cc(-c3nc([C@H]4CC[C@H](C(=O)O)CC4)n4ncnc(N)c34)[nH]c12 [OSI-027] (partner 0.5 µM),relative viability,NCI-H1563; first compound 0.08 µM,0.728
same,relative viability,NCI-H1563; first compound 0.253 µM,0.756
same,relative viability,NCI-H1563; first compound 0.8 µM,0.77
same,relative viability,NCI-H1563; first compound 2.53 µM,0.717
same,relative viability,NCI-H1563; first compound 8 µM,0.676
same,relative viability,PC-3 [JPC-3]; first compound 0.08 µM,0.763
same,relative viability,PC-3 [JPC-3]; first compound 0.253 µM,0.8
same,relative viability,PC-3 [JPC-3]; first compound 0.8 µM,0.783
same,relative viability,PC-3 [JPC-3]; first compound 2.53 µM,0.698
same,relative viability,PC-3 [JPC-3]; first compound 8 µM,0.787
same,relative viability,EKVX; first compound 0.08 µM,0.722
same,relative viability,EKVX; first compound 0.253 µM,0.812
same,relative viability,EKVX; first compound 0.8 µM,0.678
same,relative viability,EKVX; first compound 2.53 µM,0.715
same,relative viability,EKVX; first compound 8 µM,0.67
same,relative viability,NCI-H1975; first compound 0.08 µM,0.74
same,relative viability,NCI-H1975; first compound 0.253 µM,0.993
same,relative viability,NCI-H1975; first compound 0.8 µM,0.793
same,relative viability,NCI-H1975; first compound 2.53 µM,0.587
same,relative viability,NCI-H1975; first compound 8 µM,0.503
same,relative viability,LCLC-97TM1; first compound 0.08 µM,0.48
same,relative viability,LCLC-97TM1; first compound 0.253 µM,0.407
same,relative viability,LCLC-97TM1; first compound 0.8 µM,0.539
same,relative viability,LCLC-97TM1; first compound 2.53 µM,0.519
same,relative viability,LCLC-97TM1; first compound 8 µM,0.575
same,relative viability,NCI-H661; first compound 0.08 µM,0.736
same,relative viability,NCI-H661; first compound 0.253 µM,0.739
same,relative viability,NCI-H661; first compound 0.8 µM,0.71
same,relative viability,NCI-H661; first compound 2.53 µM,0.642
same,relative viability,NCI-H661; first compound 8 µM,0.647
same,relative viability,PC-14; first compound 0.08 µM,0.884
same,relative viability,PC-14; first compound 0.253 µM,1.07
same,relative viability,PC-14; first compound 0.8 µM,0.714
same,relative viability,PC-14; first compound 2.53 µM,0.772
same,relative viability,PC-14; first compound 8 µM,1.02
same,relative viability,RERF-LC-KJ; first compound 0.08 µM,0.46
same,relative viability,RERF-LC-KJ; first compound 0.253 µM,0.54
same,relative viability,RERF-LC-KJ; first compound 0.8 µM,0.526
same,relative viability,RERF-LC-KJ; first compound 2.53 µM,0.499
same,relative viability,RERF-LC-KJ; first compound 8 µM,0.494
same,relative viability,NCI-H1355; first compound 0.08 µM,0.402
same,relative viability,NCI-H1355; first compound 0.253 µM,0.376
same,relative viability,NCI-H1355; first compound 0.8 µM,0.335
same,relative viability,NCI-H1355; first compound 2.53 µM,0.338
same,relative viability,NCI-H1355; first compound 8 µM,0.33
same,relative viability,NCI-H2342; first compound 0.08 µM,0.569
same,relative viability,NCI-H2342; first compound 0.253 µM,0.607
same,relative viability,NCI-H2342; first compound 0.8 µM,0.545
same,relative viability,NCI-H2342; first compound 2.53 µM,0.594
same,relative viability,NCI-H2342; first compound 8 µM,0.568
same,relative viability,NCI-H2228; first compound 0.08 µM,0.554
same,relative viability,NCI-H2228; first compound 0.253 µM,0.719
same,relative viability,NCI-H2228; first compound 0.8 µM,0.538
same,relative viability,NCI-H2228; first compound 2.53 µM,0.389
same,relative viability,NCI-H2228; first compound 8 µM,0.544
same,relative viability,NCI-H1650; first compound 0.08 µM,0.615
same,relative viability,NCI-H1650; first compound 0.253 µM,0.593
same,relative viability,NCI-H1650; first compound 0.8 µM,0.506
same,relative viability,NCI-H1650; first compound 2.53 µM,0.521
same,relative viability,NCI-H1650; first compound 8 µM,0.561
same,relative viability,H3255; first compound 0.08 µM,0.61
same,relative viability,H3255; first compound 0.253 µM,0.604
same,relative viability,H3255; first compound 0.8 µM,0.541
same,relative viability,H3255; first compound 2.53 µM,0.569
same,relative viability,H3255; first compound 8 µM,0.671
same,relative viability,HCC-15; first compound 0.08 µM,0.633
same,relative viability,HCC-15; first compound 0.253 µM,0.765
same,relative viability,HCC-15; first compound 0.8 µM,0.733
same,relative viability,HCC-15; first compound 2.53 µM,0.634
same,relative viability,HCC-15; first compound 8 µM,0.611
same,relative viability,LK-2; first compound 0.08 µM,0.174
same,relative viability,LK-2; first compound 0.253 µM,0.189
same,relative viability,LK-2; first compound 0.8 µM,0.188
same,relative viability,LK-2; first compound 2.53 µM,0.175
same,relative viability,LK-2; first compound 8 µM,0.176
same,relative viability,NCI-H322M; first compound 0.08 µM,0.524
same,relative viability,NCI-H322M; first compound 0.253 µM,0.588
same,relative viability,NCI-H322M; first compound 0.8 µM,0.618
same,relative viability,NCI-H322M; first compound 2.53 µM,0.44
same,relative viability,NCI-H322M; first compound 8 µM,0.543
same,relative viability,NCI-H520; first compound 0.08 µM,0.297
same,relative viability,NCI-H520; first compound 0.253 µM,0.257
same,relative viability,NCI-H520; first compound 0.8 µM,0.297
same,relative viability,NCI-H520; first compound 2.53 µM,0.216
same,relative viability,NCI-H520; first compound 8 µM,0.296
same,relative viability,NCI-H1755; first compound 0.08 µM,0.71
same,relative viability,NCI-H1755; first compound 0.253 µM,0.794
same,relative viability,NCI-H1755; first compound 0.8 µM,0.682
same,relative viability,NCI-H1755; first compound 2.53 µM,0.553
same,relative viability,NCI-H1755; first compound 8 µM,0.772
same,relative viability,CAL-12T; first compound 0.08 µM,0.671
same,relative viability,CAL-12T; first compound 0.253 µM,0.709
same,relative viability,CAL-12T; first compound 0.8 µM,0.407
same,relative viability,CAL-12T; first compound 2.53 µM,0.57
same,relative viability,CAL-12T; first compound 8 µM,0.297
same,relative viability,HCC-827; first compound 0.08 µM,0.802
same,relative viability,HCC-827; first compound 0.253 µM,0.877
same,relative viability,HCC-827; first compound 0.8 µM,0.947
same,relative viability,HCC-827; first compound 2.53 µM,0.643
same,relative viability,HCC-827; first compound 8 µM,0.897
same,relative viability,NCI-H2405; first compound 0.08 µM,0.604
same,relative viability,NCI-H2405; first compound 0.253 µM,0.647
same,relative viability,NCI-H2405; first compound 0.8 µM,0.61
same,relative viability,NCI-H2405; first compound 2.53 µM,0.61
same,relative viability,NCI-H2405; first compound 8 µM,0.618
same,relative viability,NCI-H1734; first compound 0.08 µM,0.556
same,relative viability,NCI-H1734; first compound 0.253 µM,0.613
same,relative viability,NCI-H1734; first compound 0.8 µM,0.611
same,relative viability,NCI-H1734; first compound 8 µM,0.61
